Source: patent US8501946B2 (Glaxo Group Limited, priority 2009, dated 2013)
Where two headings read alike, the source gives them in different places.

Target: T1, human recombinant P2X7 receptors (Homo sapiens, UniProt Q99572)
T1 construct: expressed in transfected cells
T1 sequence (Q99572 1-595): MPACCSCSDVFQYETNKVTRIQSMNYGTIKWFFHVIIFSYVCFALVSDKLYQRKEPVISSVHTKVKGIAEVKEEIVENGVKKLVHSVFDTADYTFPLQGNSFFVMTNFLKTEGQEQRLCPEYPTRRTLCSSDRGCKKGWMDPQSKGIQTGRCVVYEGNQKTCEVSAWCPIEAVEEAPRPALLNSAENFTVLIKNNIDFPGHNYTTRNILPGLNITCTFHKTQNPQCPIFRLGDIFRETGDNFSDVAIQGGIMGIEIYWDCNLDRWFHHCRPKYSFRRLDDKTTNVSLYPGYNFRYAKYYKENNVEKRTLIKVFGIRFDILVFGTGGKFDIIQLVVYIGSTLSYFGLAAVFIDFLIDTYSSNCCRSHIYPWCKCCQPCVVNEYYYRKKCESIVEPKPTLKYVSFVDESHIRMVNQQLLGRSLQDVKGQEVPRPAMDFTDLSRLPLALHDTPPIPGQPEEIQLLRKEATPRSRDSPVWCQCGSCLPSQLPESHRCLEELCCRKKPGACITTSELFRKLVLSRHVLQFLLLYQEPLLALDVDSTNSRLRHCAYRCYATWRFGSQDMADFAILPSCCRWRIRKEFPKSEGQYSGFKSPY
Test: Ethidium Accumulation Assay 2 (HEK293 cells, ATP-induced ethidium uptake)
Format: cell-based
Details: HEK293 cells expressing human P2X7
Procedure: Eithidium Accumulation Assay 2
Human Embryonic Kidney (HEK) 293 cells, stably expressing human recombinant P2X7 receptors, were grown in poly-D-lysine pretreated 96 well plates for 24 hours at 37° C.
The cells were washed with assay buffer (100 μL), before addition of 25 μL of assay buffer and then 25 ul of assay buffer containing the putative P2X7 receptor antagonist compound. The cells were then incubated at room temperature (19-21° C.) for 30 min before addition of ATP solution (50 μM). […] Antagonist pIC50 values for blocking ATP responses were determined using iterative curve fitting techniques.

[1] = sometimes mean of more than one measurement, read-out: Assay 2 (antagonist pIC50 for blocking ATP responses) (converted)

| IC50 [1] | IC50 (read-out: Assay 2 (antagonist pIC50 for blocking ATP responses), numeric value (converted)) | SMILES |
| --- | --- | --- |
| < 10 nM | – | COc1ccnc(-c2nnc3n2CCN(C(=O)c2ccc(Cl)c(F)c2Cl)C3)c1 [Example 174, 7-[(2,4-dichloro-3-fluorophenyl)carbonyl]-3-[4-(methyloxy)-2-pyridinyl]-5,6,7,8-tetrahydro[1,2,4]triazolo[4,3-a]pyrazine] |
| – | 631 nM | Cc1nnsc1-c1nnc2n1CCN(C(=O)c1ccc(Cl)c(F)c1Cl)C2 [Example 179, 7-[(2,4-Dichloro-3-fluorophenyl)carbonyl]-3-(4-methyl-1,2,3-thiadiazol-5-yl)-5,6,7,8-tetrahydro[1,2,4]triazolo[4,3-a]pyrazine] |
| < 100 nM | – | O=C(c1ccc(Cl)c(F)c1Cl)N1CCn2c(nnc2-c2csnn2)C1 [Example 189, 7-[(2,4-Dichloro-3-fluorophenyl)carbonyl]-3-(1,2,3-thiadiazol-4-yl)-5,6,7,8-tetrahydro[1,2,4]triazolo[4,3-a]pyrazine] |
| < 10 nM | – | O=C(c1ccc(Cl)c(F)c1Cl)N1CCn2c(nnc2-c2ncns2)C1 [Example 186, 7-[(2,4-Dichloro-3-fluorophenyl)carbonyl]-3-(1,2,4-thiadiazol-5-yl)-5,6,7,8-tetrahydro[1,2,4]triazolo[4,3-a]pyrazine] |
| < 10 nM | – | Cc1c(Cl)cccc1C(=O)N1CCn2c(nnc2-c2ncns2)C1 [Example 195, 7-[(3-Chloro-2-methylphenyl)carbonyl]-3-(1,2,4-thiadiazol-5-yl)-5,6,7,8-tetrahydro[1,2,4]triazolo[4,3-a]pyrazine] |
| < 10 nM | – | Cc1scnc1-c1nnc2n1CCN(C(=O)c1ccc(Cl)c(F)c1Cl)C2 [Example 197, 7-[(2,4-Dichloro-3-fluorophenyl)carbonyl]-3-(5-methyl-1,3-thiazol-4-yl)-5,6,7,8-tetrahydro[1,2,4]triazolo[4,3-a]pyrazine] |
| < 100 nM | – | Cc1c(Cl)cccc1C(=O)N1CCn2c(nnc2-c2nccs2)C1 [Example 200, 7-[(3-Chloro-2-methylphenyl)carbonyl]-3-(1,3-thiazol-2-yl)-5,6,7,8-tetrahydro[1,2,4]triazolo[4,3-a]pyrazine] |
| < 10 nM | – | [2H]c1ccc(-c2nnc3n2CCN(C(=O)c2ccc(Cl)c(F)c2Cl)C3)nc1 [Example 183, 7-[(2,4-Dichloro-3-fluorophenyl)carbonyl]-3-(2-pyridinyl)-5,6,7,8-tetrahydro[1,2,4]triazolo[4,3-a]pyrazine-d1] |
| < 100 nM | – | Cc1scnc1-c1nnc2n1CCN(C(=O)c1cccc(Cl)c1C)C2 [Example 207, 7-[(3-chloro-2-methylphenyl)carbonyl]-3-(5-methyl-1,3-thiazol-4-yl)-5,6,7,8-tetrahydro[1,2,4]triazolo[4,3-a]pyrazine] |
| < 10 nM | – | N#Cc1c(Cl)cccc1C(=O)N1CCn2c(nnc2-c2ccccn2)C1 [Example 204, 2-Chloro-6-{[3-(2-pyridinyl)-5,6-dihydro[1,2,4]triazolo[4,3-a]pyrazin-7(8H)-yl]carbonyl}benzonitrile] |
| < 100 nM | – | O=C(c1ccc(Cl)c(F)c1Cl)N1CCn2c(nnc2-n2cccn2)C1 [Example 184, 7-[(2,4-Dichloro-3-fluorophenyl)carbonyl]-3-(1H-pyrazol-1-yl)-5,6,7,8-tetrahydro[1,2,4]triazolo[4,3-a]pyrazine] |
| < 100 nM | – | Cc1cnc(-c2nnc3n2CCN(C(=O)c2ccc(Cl)c(F)c2Cl)C3)s1 [Example 188, 7-[(2,4-Dichloro-3-fluorophenyl)carbonyl]-3-(5-methyl-1,3-thiazol-2-yl)-5,6,7,8-tetrahydro[1,2,4]triazolo[4,3-a]pyrazine] |
| < 100 nM | – | COc1cccc(-c2nnc3n2CCN(C(=O)c2ccc(Cl)c(F)c2Cl)C3)n1 [Example 176, 7-[(2,4-dichloro-3-fluorophenyl)carbonyl]-3-[6-(methyloxy)-2-pyridinyl]-5,6,7,8-tetrahydro[1,2,4]triazolo[4,3-a]pyrazine] |
| < 100 nM | – | Cc1csc(-c2nnc3n2CCN(C(=O)c2ccc(Cl)c(F)c2Cl)C3)n1 [Example 191, 7-[(2,4-Dichloro-3-fluorophenyl)carbonyl]-3-(4-methyl-1,3-thiazol-2-yl)-5,6,7,8-tetrahydro[1,2,4]triazolo[4,3-a]pyrazine] |
| < 100 nM | – | O=C(c1ccc(Cl)c(F)c1Cl)N1CCn2c(nnc2-c2cncs2)C1 [Example 185, 7-[(2,4-Dichloro-3-fluorophenyl)carbonyl]-3-(1,3-thiazol-5-yl)-5,6,7,8-tetrahydro[1,2,4]triazolo[4,3-a]pyrazine] |

Continued, compound first:

| SMILES | IC50 [1] | IC50 (read-out: Assay 2 (antagonist pIC50 for blocking ATP responses), numeric value (converted)) |
| --- | --- | --- |
| O=C(c1ccc(F)cc1Cl)N1CCn2c(nnc2-c2cnc(F)cn2)C1 [Example 165, 7-[(2-chloro-4-fluorophenyl)carbonyl]-3-(5-fluoro-2-pyrazinyl)-5,6,7,8-tetrahydro[1,2,4]triazolo[4,3-a]pyrazine] | < 100 nM | – |
| Cc1ccnc(-c2nnc3n2CCN(C(=O)c2ccc(Cl)c(F)c2Cl)C3)c1 [Example 172, 7-[(2,4-dichloro-3-fluorophenyl)carbonyl]-3-(4-methyl-2-pyridinyl)-5,6,7,8-tetrahydro[1,2,4]triazolo[4,3-a]pyrazine] | < 100 nM | – |
| O=C(c1ccc(Cl)c(F)c1Cl)N1CCn2c(nnc2-c2cscn2)C1 [Example 149, 7-[(2,4-dichloro-3-fluorophenyl)carbonyl]-3-(1,3-thiazol-4-yl)-5,6,7,8-tetrahydro[1,2,4]triazolo[4,3-a]pyrazine] | < 10 nM | – |
| O=C(c1ccc(Cl)c(F)c1Cl)N1CCn2c(nnc2-c2cccnc2O)C1 [Example 171, 3-{7-[(2,4-dichloro-3-fluorophenyl)carbonyl]-5,6,7,8-tetrahydro[1,2,4]triazolo[4,3-a]pyrazin-3-yl}-2-pyridinol] | < 100 nM | – |
| Cc1c(C(=O)N2CCn3c(nnc3-c3ccc(F)cn3)C2)ccc(F)c1F [Example 155, 7-[(3,4-difluoro-2-methylphenyl)carbonyl]-3-(5-fluoro-2-pyridinyl)-5,6,7,8-tetrahydro[1,2,4]triazolo[4,3-a]pyrazine] | < 100 nM | – |
| Cc1ccc(C(=O)N2CCn3c(nnc3-c3cnccn3)C2)c(Cl)c1Cl [Example 152, 7-[(2,3-dichloro-4-methylphenyl)carbonyl]-3-(2-pyrazinyl)-5,6,7,8-tetrahydro[1,2,4]triazolo[4,3-a]pyrazine] | < 10 nM | – |
| Cc1cc(Cl)ccc1C(=O)N1CCn2c(nnc2-c2cnccn2)C1 [Example 145, 7-[(4-chloro-2-methylphenyl)carbonyl]-3-(2-pyrazinyl)-5,6,7,8-tetrahydro[1,2,4]triazolo[4,3-a]pyrazine] | < 100 nM | – |
| O=C(c1ccc(F)cc1Cl)N1CCn2c(nnc2-c2nccs2)C1 [Example 144, 7-[(2-chloro-4-fluorophenyl)carbonyl]-3-(1,3-thiazol-2-yl)-5,6,7,8-tetrahydro[1,2,4]triazolo[4,3-a]pyrazine] | < 100 nM | – |
| O=C(c1ccc(Cl)c(F)c1Cl)N1CCn2c(nnc2-c2ncccc2F)C1 [Example 170, 7-[(2,4-dichloro-3-fluorophenyl)carbonyl]-3-(3-fluoro-2-pyridinyl)-5,6,7,8-tetrahydro[1,2,4]triazolo[4,3-a]pyrazine] | < 10 nM | – |
| O=C(c1ccc(F)cc1Br)N1CCn2c(nnc2-c2cnccn2)C1 [Example 147, 7-[(2-bromo-4-fluorophenyl)carbonyl]-3-(2-pyrazinyl)-5,6,7,8-tetrahydro[1,2,4]triazolo[4,3-a]pyrazine] | < 10 nM | – |
| Cc1c(C(=O)N2CCn3c(nnc3-c3cnccn3)C2)ccc(F)c1F [Example 151, 7-[(3,4-difluoro-2-methylphenyl)carbonyl]-3-(2-pyrazinyl)-5,6,7,8-tetrahydro[1,2,4]triazolo[4,3-a]pyrazine] | < 10 nM | – |
| Cc1c(Cl)ccc(C(=O)N2CCn3c(nnc3-c3cnccn3)C2)c1Cl [Example 154, 7-[(2,4-dichloro-3-methylphenyl)carbonyl]-3-(2-pyrazinyl)-5,6,7,8-tetrahydro[1,2,4]triazolo[4,3-a]pyrazine] | < 10 nM | – |
| O=C(c1ccc(Cl)cc1Cl)N1CCn2c(nnc2-c2ccno2)C1 [Example 157, 7-[(2,4-dichlorophenyl)carbonyl]-3-(5-isoxazolyl)-5,6,7,8-tetrahydro[1,2,4]triazolo[4,3-a]pyrazine] | < 501 nM | – |
| O=C(c1ccc(Cl)c(F)c1Cl)N1CCn2c(nnc2-c2ccc(F)cc2O)C1 [Example 150, 2-{7-[(2,4-dichloro-3-fluorophenyl)carbonyl]-5,6,7,8-tetrahydro[1,2,4]triazolo[4,3-a]pyrazin-3-yl}-5-fluorophenol] | < 100 nM | – |
| O=C(c1cccc(C(F)(F)F)c1Cl)N1CCn2c(nnc2-c2cccnc2O)C1 [Example 163, 3-(7-{[2-chloro-3-(trifluoromethyl)phenyl]carbonyl}-5,6,7,8-tetrahydro[1,2,4]triazolo[4,3-a]pyrazin-3-yl)-2-pyridinol] | < 100 nM | – |
